Experiment: Shake-flask liquid distribution ratio (Kd), Hexane:Water:Buffer of 10:9:1
Format: physicochemical
Conditions: THIAA Aug. 5, 2008
Procedure: Several shake-flask experiments were conducted to test several solvent systems and determine the liquid distribution ratio (Kd) and partition coefficient values for optimal separations. Partition coefficient values derived from shake-flask experiments are a reliable predictor of countercurrent chromatographic behavior. Kd is the concentration of the analyte in the upper phase divided by the concentration of the analyte in the lower phase and, in the alternative, may be listed as Ku/l.
General Procedure and Parameters for Shake Flask Experiments: Addition of 1 mL of the stock buffer at a known pH. Addition of the other necessary solvents to make up the system. Addition of the analyte mixture dissolved in hexane at 400 mg/mL. Final analyte concentration in the shake flask is 0.1 mg/mL. The flask was capped and mixed (by a vortex mixer) for 10 seconds. An aliquot was taken from the upper phase for HPLC analysis, and additionally a separate aliquot was taken from the lower phase for HPLC analysis from each flask. Each component was analyzed by HPLC and integrated using Shimadzu Class VP Software version 7.3 SP1.

SMILES	K Value (pH 4.9)	K Value (pH 5.5)	K Value (pH 5.6)	K Value (pH 6.0)
CC(C)CCC(=O)[C@]1(O)C(O)=C(C(=O)C(C)C)C(=O)[C@H]1CCC(C)C [TH 1, (+)-(4R,5S)-3,4-dihydroxy-2-isobutyryl-5-(3-methylbutyl)-4-(4-methylpentanoyl)cyclopent-2-en-1-one]	16.5	4.2	3.0	1.5
CC(C)CCC(=O)[C@@]1(O)C(O)=C(C(=O)C(C)C)C(=O)[C@H]1CCC(C)C [TH 2, (−)-(4S,5S)-3,4-dihydroxy-2-isobutyryl-5-(3-methylbutyl)-4-(4-methylpentanoyl)cyclopent-2-en-1-one]	10.8	2.5	1.8	0.9
CC(C)CCC(=O)[C@]1(O)C(O)=C(C(=O)CC(C)C)C(=O)[C@H]1CCC(C)C [TH 5, (+)-(4R,5S)-3,4-dihydroxy-2-(3-methylbutanoyl)-5-(3-methylbutyl)-4-(4-methylpentanoyl)cyclopent-2-en-1-one]	32.8	9.5	6.6	3.3

Continued, values first:

K Value (pH 4.9)	K Value (pH 5.5)	K Value (pH 5.6)	K Value (pH 6.0)	SMILES
55.6	16.1	11.0	5.5	CCC(C)C(=O)C1=C(O)[C@@](O)(C(=O)CCC(C)C)[C@H](CCC(C)C)C1=O (single isomer, unassigned; (+)) [TH 4]
60.3	17.8	11.4	5.5	CCC(C)C(=O)C1=C(O)C(O)(C(=O)CCC(C)C)C(CCC(C)C)C1=O (stereo not drawn) [TH 3, trans tetra ad-isoalpha acid]

— patent US20110275721A1, “METHOD FOR THE PURIFICATION OF SUBSTITUTED CYCLOPENT-2-EN-1-ONE CONGENERS AND SUBSTITUTED 1,3-CYCLOPENTADIONE CONGENERS FROM A COMPLEX MIXTURE USING COUNTERCURRENT SEPARATION” (Metaproteomics, LLC, priority 2008, published 2011)
